Laboratory results published in PubChem BioAssay (NCI).
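How tested: cells in 96-well plates exposed to compound for 48 hours at five concentrations. GI50 marks 50% less growth. TGI denotes the concentration required for complete inhibition of growth.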

Experiments:
Test in all cases: NCI anticancer screen, dose series, 48 h; in the data active means GI50 below about 0.43 µM; inactive means the rest
786-0 renal = system: 786-0 renal
A498 renal = system: A498 renal
A549 NSCLC = system: A549 NSCLC
ACHN renal = system: ACHN renal
BT-549 breast = system: BT-549 breast
CAKI-1 renal = system: CAKI-1 renal
CCRF-CEM leukemia = system: CCRF-CEM leukemia
COLO 205 colon = system: COLO 205 colon
DU-145 prostate = system: DU-145 prostate
EKVX NSCLC = system: EKVX NSCLC
HCC-2998 colon = system: HCC-2998 colon
HCT-116 colon = system: HCT-116 colon
HCT-15 colon = system: HCT-15 colon
HOP-62 NSCLC = system: HOP-62 NSCLC
HOP-92 NSCLC = system: HOP-92 NSCLC
HS 578T breast = system: HS 578T breast
HT29 colon = system: HT29 colon
IGROV1 ovarian = system: IGROV1 ovarian
K-562 leukemia = system: K-562 leukemia
KM12 colon = system: KM12 colon
LOX IMVI melanoma = system: LOX IMVI melanoma
M14 melanoma = system: M14 melanoma
MALME-3M melanoma = system: MALME-3M melanoma
MCF7 breast = system: MCF7 breast
MDA-MB-231 breast = system: MDA-MB-231 breast
MDA-MB-435 = system: MDA-MB-435
MOLT-4 leukemia = system: MOLT-4 leukemia
NCI-H226 lung = system: NCI-H226 lung
NCI-H23 lung = system: NCI-H23 lung
NCI-H460 lung = system: NCI-H460 lung
NCI-H522 lung = system: NCI-H522 lung
NCI/ADR-RES ovarian = system: NCI/ADR-RES ovarian
OVCAR-3 ovarian = system: OVCAR-3 ovarian
OVCAR-4 ovarian = system: OVCAR-4 ovarian
OVCAR-5 ovarian = system: OVCAR-5 ovarian
OVCAR-8 ovarian = system: OVCAR-8 ovarian
PC-3 prostate = system: PC-3 prostate
RPMI-8226 leukemia = system: RPMI-8226 leukemia
RXF 393 renal = system: RXF 393 renal
SF-268 CNS = system: SF-268 CNS
SF-295 CNS = system: SF-295 CNS
SF-539 CNS = system: SF-539 CNS
SK-MEL-2 melanoma = system: SK-MEL-2 melanoma
SK-MEL-28 melanoma = system: SK-MEL-28 melanoma
SK-MEL-5 melanoma = system: SK-MEL-5 melanoma
SK-OV-3 ovarian = system: SK-OV-3 ovarian
SN12C renal = system: SN12C renal
SNB-19 CNS = system: SNB-19 CNS
SNB-75 CNS = system: SNB-75 CNS
SW-620 colon = system: SW-620 colon
T-47D breast = system: T-47D breast
TK-10 renal = system: TK-10 renal
U251 CNS = system: U251 CNS
UACC-257 melanoma = system: UACC-257 melanoma
UACC-62 melanoma = system: UACC-62 melanoma
UO-31 renal = system: UO-31 renal

O=C(c1ccccc1)c1c(NCC(O)CN2CCOCC2)n(Cc2ccccc2)c(=O)n(Cc2ccccc2)c1=O (stereo unspecified)
> 95.3 µM: TGI (OVCAR-4 ovarian)
> 100 µM: TGI (786-0 renal) | TGI (A549 NSCLC) | TGI (ACHN renal) | TGI (BT-549 breast) | TGI (CAKI-1 renal) | TGI (CCRF-CEM leukemia) | TGI (HCT-116 colon) | TGI (HCT-15 colon) | TGI (HOP-62 NSCLC) | TGI (HS 578T breast) | TGI (IGROV1 ovarian) | TGI (K-562 leukemia) | TGI (KM12 colon) | TGI (LOX IMVI melanoma) | TGI (M14 melanoma) | TGI (MALME-3M melanoma) | TGI (MCF7 breast) | TGI (MDA-MB-231 breast) | TGI (MDA-MB-435) | TGI (NCI-H460 lung) | TGI (NCI-H522 lung) | TGI (OVCAR-8 ovarian) | TGI (PC-3 prostate) | TGI (SF-268 CNS) | TGI (SF-295 CNS) | TGI (SF-539 CNS) | TGI (SK-MEL-2 melanoma) | TGI (SK-MEL-28 melanoma) | TGI (SK-MEL-5 melanoma) | TGI (SN12C renal) | TGI (SW-620 colon) | TGI (TK-10 renal) | TGI (U251 CNS) | TGI (UACC-257 melanoma) | TGI (UACC-62 melanoma) | TGI (UO-31 renal)
> 95.5 µM: TGI (MOLT-4 leukemia)
> 90.8 µM: TGI (EKVX NSCLC)
> 84.7 µM: TGI (SNB-19 CNS)
> 39.1 µM: TGI (COLO 205 colon)
> 81.7 µM: TGI (SNB-75 CNS)
> 92.4 µM: TGI (RPMI-8226 leukemia)
> 43.3 µM: TGI (T-47D breast)
inactive: GI50 (786-0 renal) 54.1 µM | GI50 (A498 renal) 27.5 µM | GI50 (A549 NSCLC) 35.7 µM | GI50 (ACHN renal) 40.5 µM | GI50 (BT-549 breast) 29.3 µM | GI50 (CAKI-1 renal) 32.5 µM | GI50 (CCRF-CEM leukemia) 41.3 µM | GI50 (COLO 205 colon) 7.61 µM | GI50 (DU-145 prostate) 35.2 µM | GI50 (EKVX NSCLC) > 48.6 µM | GI50 (HCC-2998 colon) 1.26 µM | GI50 (HCT-116 colon) 34.1 µM | GI50 (HCT-15 colon) 34.4 µM | GI50 (HOP-62 NSCLC) 96.9 µM | GI50 (HOP-92 NSCLC) 17.9 µM | GI50 (HS 578T breast) 55 µM | GI50 (HT29 colon) 26.4 µM | GI50 (IGROV1 ovarian) 38.5 µM | GI50 (K-562 leukemia) 42.2 µM | GI50 (KM12 colon) 40.4 µM | GI50 (LOX IMVI melanoma) 38.6 µM | GI50 (M14 melanoma) 38.9 µM | GI50 (MALME-3M melanoma) 48.8 µM | GI50 (MCF7 breast) 48.2 µM | GI50 (MDA-MB-231 breast) 28.8 µM | GI50 (MDA-MB-435) 35.2 µM | GI50 (MOLT-4 leukemia) 32.4 µM | GI50 (NCI-H226 lung) 31.6 µM | GI50 (NCI-H23 lung) 1.19 µM | GI50 (NCI-H460 lung) 42.9 µM | GI50 (NCI-H522 lung) 38.9 µM | GI50 (NCI/ADR-RES ovarian) 2.17 µM | GI50 (OVCAR-3 ovarian) 27.6 µM | GI50 (OVCAR-4 ovarian) > 45.4 µM | GI50 (OVCAR-5 ovarian) 5.53 µM | GI50 (OVCAR-8 ovarian) 48.9 µM | GI50 (PC-3 prostate) 39.4 µM | GI50 (RPMI-8226 leukemia) 24 µM | GI50 (RXF 393 renal) 25.3 µM | GI50 (SF-268 CNS) > 79.8 µM | GI50 (SF-295 CNS) 36.2 µM | GI50 (SF-539 CNS) > 68 µM | GI50 (SK-MEL-2 melanoma) > 66.4 µM | GI50 (SK-MEL-28 melanoma) > 64.1 µM | GI50 (SK-MEL-5 melanoma) 33.4 µM | GI50 (SK-OV-3 ovarian) > 29.9 µM | GI50 (SN12C renal) 46 µM | GI50 (SNB-19 CNS) 19.1 µM | GI50 (SNB-75 CNS) > 36.8 µM | GI50 (SW-620 colon) 52.9 µM | GI50 (T-47D breast) 1.69 µM | GI50 (TK-10 renal) 30.2 µM | GI50 (U251 CNS) 29.2 µM | GI50 (UACC-257 melanoma) 55.8 µM | GI50 (UACC-62 melanoma) 36.7 µM | GI50 (UO-31 renal) 34.5 µM
70.8 µM: TGI (HOP-92 NSCLC)
> 94 µM: TGI (RXF 393 renal)
4.86 µM: TGI (HCC-2998 colon)
> 95.1 µM: TGI (NCI-H226 lung)
> 27.4 µM: TGI (NCI/ADR-RES ovarian)
> 78.7 µM: TGI (OVCAR-5 ovarian)
> 77.3 µM: TGI (OVCAR-3 ovarian)
> 62.9 µM: TGI (HT29 colon)
> 70.1 µM: TGI (SK-OV-3 ovarian)
> 77.5 µM: TGI (DU-145 prostate)
> 88.8 µM: TGI (A498 renal)
